How the values were obtained:
[1] = target: T1, Purified recombinant NBD1 (Homo sapiens, UniProt P13569); assay: Aggregation analysis using differential static light scattering (DSLS): thermal stability of NBD1; format: binding; conditions: NBD1 0.2 mg/ml; Tagg of compound well minus average Tagg of DMSO control wells
T1 construct: Purified recombinant NBD1 was produced using previously described methods; made in house
Procedure, shortened: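 Recombinant NBD1 at 0.2 mg/ml in Tris/NaCl/MgCl2 buffer with 2 mM ATP, 2 mM DTT, 1% glycerol, pH 7.6, was incubated with compound and heated at 1 °C/min to 70 °C while static light scattering was monitored. Tagg was taken from the curve inflection point and reported as ΔTagg relative to DMSO controls.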

[2] = test system: Primary human bronchial epithelial cells from a ΔF508 homozygous CF donor (CF-HBE cells); assay: TECC24 recording of CFTR-mediated transepithelial chloride transport, AUC fold over benchmark VX-809 @10 μM; format: cell-based; conditions: 48 hours incubation, AUC of forskolin-stimulated IEQ
Procedure, shortened: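 CF-HBE cells on inserts were treated with compound for 48 h at 36.5 °C, then recorded in current-clamp with benzamil 10 μM, forskolin 10 μM, and finally CFTR inhibitor-172 20 μM in pH 7.4 Hepes saline. Equivalent Cl− current AUC between forskolin and inhibitor addition is expressed as a ratio to VX-809 AUC: A <3, B 3–6, C 6–20.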

T1 sequence (P13569 423-646 limits assumed): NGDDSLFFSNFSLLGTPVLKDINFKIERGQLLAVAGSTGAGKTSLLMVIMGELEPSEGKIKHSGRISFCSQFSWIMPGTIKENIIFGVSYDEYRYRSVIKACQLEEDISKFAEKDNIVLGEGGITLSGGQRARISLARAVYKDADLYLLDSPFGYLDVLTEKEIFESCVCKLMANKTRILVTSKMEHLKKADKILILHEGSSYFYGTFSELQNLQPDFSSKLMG

Row | SMILES | DSLS (ΔTagg) [1] | TECC (test agent AUC divided by VX-809 AUC) [2]
1 | Cn1nc2nc1-c1cc(ccc1F)Oc1c(F)cc3[nH]ccc3c1COC(=O)NC(C)(C)CCCC2(C)c1cccc(CCC(=O)O)c1 (single isomer, unassigned) [Compound 99A, 3-[3-(22,28-difluoro-3,6,10,10-tetramethyl-12-oxo-13,24-dioxa-3,4,11,19,30-pentazapentacyclo-[23.3.1.12,5.015,23.016,20]-triaconta-1(29),2(30),4,15,17,20,22,25,27-nonaen-6-yl)phenyl]propanoic acid] | C (a value greater than 10 °C and less than or equal to 25 °C is marked “C”) | B (a value between 3 and 6 is marked “B”)
2 | Cn1nc2nc1-c1cc(ccc1F)Oc1c(F)cc3[nH]ccc3c1COC(=O)NC(C)(C)CCCC2(C)c1cccc(CCC(=O)O)c1 (single isomer, unassigned) [Compound 99B, 3-[3-(22,28-difluoro-3,6,10,10-tetramethyl-12-oxo-13,24-dioxa-3,4,11,19,30-pentazapentacyclo-[23.3.1.12,5.015,23.016,20]-triaconta-1(29),2(30),4,15,17,20,22,25,27-nonaen-6-yl)phenyl]propanoic acid] | A (an ΔTagg value less than or equal to 5 °C is marked “A”) | B (a value between 3 and 6 is marked “B”)
3 | Cn1nc2nc1-c1cc(ccc1F)Oc1c(F)cc3[nH]ccc3c1COC(=O)NC(C)(C)COCCC2(C)c1cccc(CCC(=O)O)c1 (single isomer, unassigned) [Compound 100A, 3-[3-(23,29-difluoro-3,6,11,11-tetramethyl-13-oxo-9,14,25-trioxa-3,4,12,20,31-pentazapentacyclo-[24.3.1.12,5.016,24.017,21]hentriaconta-1(30),2(31),4,16,18,21,23,26,28-nonaen-6-yl)phenyl]propanoic acid] | C (a value greater than 10 °C and less than or equal to 25 °C is marked “C”) | C (a value between 6 and 20 is marked “C”)
4 | Cn1nc2nc1-c1cc(ccc1F)Oc1c(F)cc3[nH]ccc3c1COC(=O)NC(C)(C)COCCC2(C)c1cccc(CCC(=O)O)c1 (single isomer, unassigned) [Compound 100B, 3-[3-(23,29-difluoro-3,6,11,11-tetramethyl-13-oxo-9,14,25-trioxa-3,4,12,20,31-pentazapentacyclo-[24.3.1.12,5.016,24.017,21]hentriaconta-1(30),2(31),4,16,18,21,23,26,28-nonaen-6-yl)phenyl]propanoic acid] | A (an ΔTagg value less than or equal to 5 °C is marked “A”) | C (a value between 6 and 20 is marked “C”)
5 | CC(Cc1cccc(C2(C)CCCCC(C)(C)NC(=O)OCc3c(c(F)cc4[nH]ccc34)Oc3ccc(F)c(c3)-c3nc2nn3C)c1)C(=O)O (single isomer, unassigned) [Compound 101A, 3-[3-(23,29-difluoro-3,6,11,11-tetramethyl-13-oxo-14,25-dioxa-3,4,12,20,31-pentazapentacyclo[24.3.1.12,5.016,24.017,21]-hentriaconta-1(30),2(31),4,16,18,21,23,26,28-nonaen-6-yl)phenyl]-2-methyl-propanoic acid] | C (a value greater than 10 °C and less than or equal to 25 °C is marked “C”) | B (a value between 3 and 6 is marked “B”)
6 | CC(Cc1cccc(C2(C)CCCCC(C)(C)NC(=O)OCc3c(c(F)cc4[nH]ccc34)Oc3ccc(F)c(c3)-c3nc2nn3C)c1)C(=O)O (single isomer, unassigned) [Compound 101B, 3-[3-(23,29-difluoro-3,6,11,11-tetramethyl-13-oxo-14,25-dioxa-3,4,12,20,31-pentazapentacyclo[24.3.1.12,5.016,24.017,21]-hentriaconta-1(30),2(31),4,16,18,21,23,26,28-nonaen-6-yl)phenyl]-2-methyl-propanoic acid] | A (an ΔTagg value less than or equal to 5 °C is marked “A”) | A (a TECC value less than 3 is marked “A”)
7 | C[C@@H](Cc1cccc(C2(C)CCCC(C)(C)N(C)S(=O)(=O)CCc3c(c(F)cc4[nH]ccc34)Oc3ccc(F)c(c3)-c3nc2nn3C)c1)C(=O)O (single isomer, unassigned) [Compound 117A] | B (a value above 5 °C and less than or equal to 10 °C is marked “B”) | A (a TECC value less than 3 is marked “A”)
8 | C[C@@H](Cc1cccc(C2(C)CCCC(C)(C)N(C)S(=O)(=O)CCc3c(c(F)cc4[nH]ccc34)Oc3ccc(F)c(c3)-c3nc2nn3C)c1)C(=O)O (single isomer, unassigned) [Compound 117B] | C (a value greater than 10 °C and less than or equal to 25 °C is marked “C”) | B (a value between 3 and 6 is marked “B”)
9 | O=C(O)CCc1cccc(C2CCCCNC(=O)CCc3c(c(F)cc4[nH]ccc34)Oc3ccc(F)c(c3)-c3ncc2[nH]3)c1 (centres unmarked) [Compound 3, 3-[3-(22,28-Difluoro-12-oxo-24-oxa-3,11,19,30-tetrazapentacyclo-[23.3.1.12,5.015,23.016,20]triaconta-1(29),2,4,15,17,20,22,25,27-nonaen-6-yl)phenyl]-propanoic acid] | C (a value greater than 10 °C and less than or equal to 25 °C is marked “C”) | B (a value between 3 and 6 is marked “B”)
10 | O=C(O)CCc1cccc(C2CCCCCCNC(=O)CCc3c(c(F)cc4[nH]ccc34)Oc3ccc(F)c(c3)-c3ncc2[nH]3)c1 (centres unmarked) [Compound 4, 3-[3-(24,30-Difluoro-14-oxo-26-oxa-3,13,21,32-tetrazapentacyclo-[25.3.1.12,5.017,25.018,22]dotriaconta-1(31),2,4,17,19,22,24,27,29-nonaen-6-yl)phenyl]propanoic acid] | C (a value greater than 10 °C and less than or equal to 25 °C is marked “C”) | B (a value between 3 and 6 is marked “B”)
11 | O=C(O)CCc1cccc(C2CCCNC(=O)CCc3c(c(F)cc4[nH]ccc34)Oc3ccc(F)c(c3)-c3ncc2[nH]3)c1 (centres unmarked) [Compound 8, 3-[3-(21,27-Difluoro-11-oxo-23-oxa-3,10,18,29-tetrazapentacyclo[22.3.1.12,5.014,22.015,19]nonacosa-1(28),2,4,14,16,19,21,24,26-nonaen-6-yl)phenyl]propanoic acid] | C (a value greater than 10 °C and less than or equal to 25 °C is marked “C”) | A (a TECC value less than 3 is marked “A”)
12 | CC1(c2cccc(CCC(=O)O)c2)CC(=O)NCCCCCc2c(c(F)cc3[nH]ccc23)Oc2ccc(F)c(c2)-c2ncc1[nH]2 (centres unmarked) [Compound 26, 3-[3-(22,28-Difluoro-6-methyl-8-oxo-24-oxa-3,9,19,30-tetrazapentacyclo[23.3.1.12,5.015,23.016,20]triaconta-1(29),2,4,15,17,20,22,25,27-nonaen-6-yl)phenyl]propanoic acid] | C (a value greater than 10 °C and less than or equal to 25 °C is marked “C”) | B (a value between 3 and 6 is marked “B”)
13 | CC1(c2ccccc2)CC(=O)NCCCCCc2c(c(F)cc3[nH]ccc23)Oc2ccc(F)c(c2)-c2ncc1[nH]2 (centres unmarked) [Compound 27, 22,28-Difluoro-6-methyl-6-phenyl-24-oxa-3,9,19,30-tetrazapentacyclo[23.3.1.12,5.015,23.016,20]triaconta-1(29),2,4,15,17,20,22,25,27-nonaen-8-one] | A (an ΔTagg value less than or equal to 5 °C is marked “A”) | A (a TECC value less than 3 is marked “A”)
14 | CN1CC(C)(C)CCCC(c2cccc(CCC(=O)O)c2F)c2cnc([nH]2)-c2cc(ccc2F)Oc2c(F)cc3[nH]ccc3c2CCC1=O (centres unmarked) [Compound 28, 3-[3-(23,29-Difluoro-10,10,12-trimethyl-13-oxo-25-oxa-3,12,20,31-tetrazapentacyclo[24.3.1.12,5.016,24.017,21]hentriaconta-1(30),2,4,16,18,21,23,26,28-nonaen-6-yl)-2-fluoro-phenyl]propanoic acid] | C (a value greater than 10 °C and less than or equal to 25 °C is marked “C”) | A (a TECC value less than 3 is marked “A”)
15 | CN1CCC(C)(C)CCC(C)(c2cccc(CCC(=O)O)c2)c2cnc([nH]2)-c2cc(ccc2F)Oc2c(F)cc3[nH]ccc3c2CCC1=O (centres unmarked) [Compound 29, 3-[3-(23,29-Difluoro-6,9,9,12-tetramethyl-13-oxo-25-oxa-3,12,20,31-tetrazapentacyclo[24.3.1.12,5.016,24.017,21]hentriaconta-1(30),2,4,16,18,21,23,26,28-nonaen-6-yl)phenyl]propanoic acid] | C (a value greater than 10 °C and less than or equal to 25 °C is marked “C”) | B (a value between 3 and 6 is marked “B”)
16 | CN1CCC(C)(C)CCC(c2cccc(CCC(=O)O)c2F)c2cnc([nH]2)-c2cc(ccc2F)Oc2c(F)cc3[nH]ccc3c2CCC1=O (centres unmarked) [Compound 30, 3-[3-(23,29-Difluoro-9,9,12-trimethyl-13-oxo-25-oxa-3,12,20,31-tetrazapentacyclo[24.3.1.12,5.016,24.017,21]hentriaconta-1(30),2,4,16,18,21,23,26,28-nonaen-6-yl)-2-fluoro-phenyl]propanoic acid] | B (a value above 5 °C and less than or equal to 10 °C is marked “B”) | A (a TECC value less than 3 is marked “A”)
